{"source": "paper PMC12320831", "about": "“Synthesis and Biological Evaluation of New Chalcogen Semicarbazone (S, Se) and Their Azole Derivatives against Chagas Disease” (Journal of Medicinal Chemistry, 2024)", "key": {"T. cruzi CAI/72 strain": {"tested_on": "T. cruzi CAI/72 strain", "test": "Antiparasitic activity in C2C12 cells infected with T. cruzi CAI/72 (image-based assay)", "type": "cell-based", "details": "for EC50: read-out: EC50 Tc CAI/72, intracellular amastigotes in C2C12 cells, 48 h, mean of three experiments in triplicate (n = 9) ± SD"}, "[1]": {"test": "Host cell cytotoxicity (C2C12 viability)", "type": "cell-based, Mouse", "details": "mouse", "how_it_was_run": "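Mouse C2C12 myoblasts co-seeded with CAI/72 trypomastigotes (10:1 parasite:cell) on compound, 48 h at 37 °C, 5% CO2. DAPI-stained fixed cells imaged; parasites per host cell normalized to 40 μM BNZ and DMSO. EC50 and C2C12 viability from dose-response curves, three biological replicates in triplicate.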"}, "[2]": {"target": "T1, Recombinant human cathepsin L (hCatL) (Homo sapiens, UniProt P07711)", "T1 construct": "purchased R&D Systems 952-CY", "T1 sequence (P07711 114-333)": "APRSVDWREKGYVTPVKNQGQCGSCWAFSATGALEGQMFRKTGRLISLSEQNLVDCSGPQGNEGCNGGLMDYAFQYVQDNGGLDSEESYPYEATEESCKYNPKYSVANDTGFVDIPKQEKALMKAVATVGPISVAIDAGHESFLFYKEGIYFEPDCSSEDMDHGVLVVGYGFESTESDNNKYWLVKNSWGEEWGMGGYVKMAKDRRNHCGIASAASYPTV", "test": "Human cathepsin L inhibition assay (Z-FR-AMC substrate)", "type": "biochemical", "method": "Compounds were screened at 10 μM. […] The experiment was performed for 30 min.\nAll experiments were accomplished in a 384-well black microplate, using a Synergy HTX (Biotek) plate reader at 25 °C with absorption/emission wavelengths of 360/460 nm. All assays were performed in triplicate wells and DMSO was used as a vehicle control. Enzymatic activity was measured and normalized to DMSO controls, and the inhibitor E-64 (10 μM) was used as a positive control for all assays. All experiments were performed in triplicates, with at least two independent assays (n = 6 data points). IC50 values were determined through nonlinear regression. Obtained data were treated and analyzed using GraphPad Prism 9.0 (GraphPad Software, La Jolla, California)."}, "[3]": {"test": "DPPH radical scavenging (antioxidant) assay", "details": "for Percentage of inhibited DPPH (2 h): mean ± SEM", "method": "The antioxidant capacity of the selected Se compound was tested using the DPPH assay described by Astrain-Redin. The compound was tested at three different concentrations (0.06, 0.03, and 0.015 mg/mL) and we used two positive controls: ascorbic acid (ASC) and trolox (TRO). A solution of DPPH (2,2-diphenyl-1-picrylhydrazyl) in methanol (0.04 mg/mL, preserved in the dark) was prepared and 100 μL of this stock solution was added to 100 μL of tested compound solution. The color change, from purple (radical) to yellow (reduced), was measured at 517 nm at different time points (0, 5, 15, 30, 60, 90, and 120 min). All measurements were carried out in triplicate and recorded on a BioTek PowerWave XS spectrophotometer (Biotek). Data were collected using BioTek Gen5Microplate reader and Imager software (Agilent, version 3.12). Results are expressed as a percentage of inhibited DPPH ± standard error of the mean (SEM), calculated using the following formula %inhibitedDPPH=Acontrol−Asample/Acontrol×100 where A control refers to the absorbance of the negative control and A sample refers to the absorbance of the tested compound."}, "[4]": {"test": "Snapshot pharmacokinetic study in mice", "type": "in vivo, Balb/c mice", "method": "Compound Se 2h was administered intravenously (5 mg/kg in 10% dimethyl sulfoxide, 30% propylene glycol, 30% PEG 400, and 30% of 10.0% Tween 80 in DI water) and by oral gavage (50 mg/kg in PEG 400 with 5% 1-methyl-2-pyrrolidone) in two female Balb/c mice (6 weeks old) for each group. Blood samples (∼25 μL) were collected with heparinized capillary tubes via the eye vein on mice anesthetized with isoflurane precompound administration and in the following times post administration: 30 min, 1 h, 2 h, 4 h. Samples were immediately centrifuged for plasma collection (supernatant). The animal experiment was approved by the UC San Diego IACUC committee under the protocol S14187 and follow all the ethical standards. The material was submitted for mass spectrometry quantification with provided known amounts spiked in naïve plasma for reference curve."}}, "note": "Several values for one entry are separate records, joined by “and”; a condition that tells them apart may be missing. Equal entries are not always repeated. Where two headings read alike, the source gives them in different places."}
{"smiles": "C/C(=N\\Nc1nc(C)c[se]1)c1cccc([N+](=O)[O-])c1.Cl", "note": "[Se2h, (E)-4-Methyl-2-(2-(1-(3-nitrophenyl)ethylidene)hydrazineyl)-1,3-selenazole Hydrochloride]", "values": [{"measurement": "inhibition at 10 µM", "setting": "T. cruzi CAI/72 strain; Trypanosoma cruzi, C2C12, read-out: Anti-Tc CAI/72 activity (%)", "value": 57.7, "unit": "%"}, {"measurement": "EC50", "setting": "T. cruzi CAI/72 strain", "value": "310 ± 180", "unit": "nM"}, {"measurement": "EC50", "setting": "T. cruzi CAI/72 strain; listed as Se 2h", "value": "< 1000", "unit": "nM"}, {"measurement": "viability at 48 h, 10 µM", "setting": "[1]; 10 µM, < 50% viability considered cytotoxic", "value": "> 100", "unit": "%"}, {"measurement": "CC50 at 48 h", "setting": "[1]; viability calculated at 10 μM", "value": "> 10000", "unit": "nM"}, {"measurement": "inhibition at 10 µM", "setting": "[2]; 10 µM", "value": 92.2, "unit": "%"}, {"measurement": "IC50", "setting": "[2]; each of two biological replicates in triplicate, read-out: IC50 hCatL, single biological replicate (Figure 4)", "value": "1320 nM and 1360 nM"}, {"measurement": "IC50", "setting": "[2]; mean of two experiments in triplicate (n = 6) ± SEM, read-out: IC50 hCatL", "value": "1340 ± 18", "unit": "nM"}, {"measurement": "Percentage of inhibited DPPH (2 h)", "setting": "[3]; 0,03 mg/ml", "value": "78,00 ± 1,73%"}, {"measurement": "Percentage of inhibited DPPH (2 h)", "setting": "[3]; 0,06 mg/ml", "value": "78,33 ± 1,76%"}, {"measurement": "time to reach the plateau of the DPPH kinetic curve", "setting": "[3]; 0.015 mg/mL", "value": 30, "unit": "min"}, {"measurement": "Percentage of inhibited DPPH (2 h)", "setting": "[3]; 0,015 mg/ml", "value": "77,33 ± 0,88%"}, {"measurement": "inhibition of DPPH after 2 h", "setting": "[3]; all tested concentrations (0.06, 0.03 and 0.015 mg/mL)", "value": "more than 60%"}, {"measurement": "acute toxicity in the PK study", "setting": "[4]; 5 mg/kg intravenous and 50 mg/kg oral", "value": "no signs of acute toxicity"}, {"measurement": "bioavailability", "setting": "[4]; female, Balb/c, mouse, plasma, 50 mg/kg oral vs 5 mg/kg intravenous", "value": 82, "unit": "%"}, {"measurement": "Cmax at 0.5 h", "setting": "[4]; female, Balb/c, mouse, plasma, oral dose 50 mg/kg", "value": 2300, "unit": "nM"}, {"measurement": "half-life", "setting": "[4]; female, Balb/c, mouse, plasma, other: intravenous and oral, 5 mg/kg intravenous and 50 mg/kg oral, read-out: half-life (T 1/2)", "value": "< 1", "unit": "h"}, {"measurement": "time of C max post administration", "setting": "[4]; oral dose 50 mg/kg", "value": 30, "unit": "min"}]}
